{
  "source": "paper PMC11896996",
  "about": "“Emodin mitigates rheumatoid arthritis through direct binding to TNF-α” (Frontiers in Pharmacology, 2025)",
  "biological_target": "T1, TNF-α (Homo sapiens, UniProt P01375)",
  "T1 construct": "Human TNF-α recombinant protein (Peprotech)",
  "T1 sequence (P01375 77-233)": "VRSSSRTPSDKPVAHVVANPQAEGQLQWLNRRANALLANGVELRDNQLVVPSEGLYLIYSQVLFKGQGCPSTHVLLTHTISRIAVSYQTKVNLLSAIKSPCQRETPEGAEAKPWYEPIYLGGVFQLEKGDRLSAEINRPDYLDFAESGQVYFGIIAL",
  "assay": "SPR (Biacore T200, hTNF-α immobilized on CM5); BLI gave KD […]; TNF-α-TNFR1 ELISA IC50 […]",
  "format": "binding",
  "data": [
    {"smiles": "Cc1cc(O)c2c(c1)C(=O)c1cc(O)cc(O)c1C2=O", "note": "[emodin, 1,3,8-trihydroxy-6-methylanthraquinone]", "values": [
      {"measurement": "Kd", "result": "~26.5", "unit": "µM"}
    ]}
  ]
}
